PMC11053077, “HBO1 catalyzes lysine lactylation and mediates histone H3K9la to regulate gene transcription” (Nature Communications, 2024)

How the values were obtained:
HBO1 [1] = biological target: T1, HBO1 (Homo sapiens, UniProt O95251); experiment: isothermal titration calorimetry (supported by in vitro histone lactylation assay with purified HBO1); type: binding
T1 construct: gene KAT7; HBO1 (336-611), acyltransferase/catalytic domain, purified from E. coli

HBO1 [2] = biological target: T1, HBO1; experiment: isothermal titration calorimetry (supported by in vitro histone acetylation assay with purified HBO1); type: binding

T1 sequence (O95251 336-611): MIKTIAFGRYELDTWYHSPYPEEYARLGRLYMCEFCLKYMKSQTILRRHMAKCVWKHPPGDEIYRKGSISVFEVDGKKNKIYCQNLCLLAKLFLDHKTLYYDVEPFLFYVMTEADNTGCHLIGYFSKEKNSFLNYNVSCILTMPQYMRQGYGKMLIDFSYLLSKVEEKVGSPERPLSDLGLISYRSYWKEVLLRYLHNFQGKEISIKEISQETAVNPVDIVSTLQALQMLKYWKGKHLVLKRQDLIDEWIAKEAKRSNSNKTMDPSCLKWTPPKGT

C[C@H](O)C(=O)SCCNC(=O)CCNC(=O)[C@H](O)C(C)(C)COP(=O)(O)OP(=O)(O)OC[C@H]1O[C@@H](n2cnc3c(N)ncnc32)[C@H](O)[C@@H]1OP(=O)(O)O [lactyl-CoA]
Kd (HBO1 [1]): 520 nM

CC(=O)SCCNC(=O)CCNC(=O)[C@H](O)C(C)(C)COP(=O)(O)OP(=O)(O)OC[C@H]1O[C@@H](n2cnc3c(N)ncnc32)[C@H](O)[C@@H]1OP(=O)(O)O [acetyl-CoA]
Kd (HBO1 [2]): 1460 nM
